Assay results taken from US12350308B2, “Phosphorylcholine conjugates and uses thereof” (TPCERA LTD., priority 2013, dated 2025).
*1 amine or outer side, *2 acyl side, *3 side chain or, on linkers, in order; H or OH if unused. Where a SMILES comes first, the peptide text is derived from it. [ ]: non-standard residue; d: D form. X1 = C[N+](C)(C)CCOP(=O)([O-])Oc1ccc(N=Nc2cc(C[C@H](N[*:1])C(=O)[*:2])ccc2O)cc1

Legend:
Type in all cases: in vivo
[1] = test system: CIA mice; assay: Arthritis score in CIA mice treated orally or s.c. with TD-PC; details: day 31
Source text: The main characteristic of rheumatoid arthritis is joint deformation due to high inflammation. The TD-PC effect on arthritis score in CIA mice was monitored. […] Arthritis score was lower in both groups of TD-PC treatment (oral and s.c.) starting two weeks after disease induction—day 14, until the mice were sacrificed—day 31.

[2] = test system: CD4+CD25+FOXP3+ Treg cells; assay: Treg expansion in splenocytes of mice with established CIA (FACS); details: isolated splenocytes; PBS 1.4%
Source text: The frequency of CD4+CD25+FOXP3+ Treg cells subset in isolated splenocytes from mice treated with TPC, PBS, TD (SEQ ID NO: 25), PC, TD+PC or untreated is elucidated in FIGS. 33A and 33B. […] Representative data of the CD4+CD25+FOXP3+ levels in splenocytes derived from TD-PC, PBS, TD (SEQ ID NO: 25), PC and TD+PC treated mice and the untreated group, gating on CD4+ T cells are presented in FIG. 33B.

[3] = test system: splenocytes of NZBW/F1 female mice; assay: Cytokine secretion in-vitro by splenocytes of lupus mice treated with TD-PC; details: vs PBS
Experimental: NZBW/F1 female mice having lupus were treated with TD-PC (SEQ ID NO: 25 conjugated to PC) or the corresponding control treatments. Mice were sacrificed at week 30, and their splenocytes were studied in-vitro for the expression of pro-inflammatory cytokines (IFNγ, IL-17) and anti-inflammatory (TGFβ, IL-10) cytokines using RT-PCR. […] In contrast, TD-PC increased the mRNA expression of the anti-inflammatory cytokine TGFβ in the (p<0.001) compared to the mRNA expressed by splenocytes derived from PBS-treated mice (FIG. 24A).
However, a prominent increase in anti-inflammatory cytokines (TGFβ, IL-10) secretion in-vitro by splenocytes derived from TD-PC treated mice is illustrated in FIG. 24B. […] IFNγ secretion upon tuftsin derivative (SEQ ID NO: 25) or PC treatments was reduced by 2.5 and 1.5 times respectively (p<0.03 and p<0.04, respectively).

[4] = test system: splenocytes derived from CIA mice; assay: Cytokine secretion in-vitro by splenocytes of mice with established CIA; details: splenocyte culture fluids
Experimental: Secretion, in-vitro, of pro-inflammatory and anti-inflammatory cytokines by splenocytes derived from CIA mice treated with TD-PC, PBS, TD, PC, TD+PC or untreated mice was evaluated (FIGS. 32A-32D). The following cytokines secretions were examined: pro-inflammatory IL-1β (FIG. 32A), IL-17 (FIG. 32B), IL-6 (FIG. 32C), TNF-α (FIG. 32D) and anti-inflammatory IL-10 (FIG. 32E).

[5] = test system: CD4+CD25+FOXP3+ Treg cells; assay: Treg expansion in splenocytes of CIA mice (FACS), Example 16; details: vs PBS
Source text: The frequency of CD4+CD25+FOXP3+ Treg cells subset in isolated mice splenocytes, following treatment with TD-PC or control (PBS) is elucidated in FIGS. 29A-29B. […] Representative data of the CD4+CD25+FOXP3+ levels in splenocytes derived from TD-PC and PBS treated mice gating on CD4+ T cells are presented in FIG. 29A and the corresponding statistics is presented in FIG. 29B.

[6] = test system: Breg cells; assay: Breg expansion in splenocytes of CIA mice (FACS), Example 17; details: subsets CD19+IL-10+TIM-1+ and IL-10highCD5highCD1dhigh; vs PBS
Experimental: The mean percentage of Breg cells in isolated splenocytes following treatment with TD-PC or PBS was measured within two main subsets CD19+IL-10+TIM-1+ (representative data: FIG. 30A, statistics: FIG. 30C, n=15) and IL-10^highCD5^highCD1d^high (representative data: FIG. 30B, statistics: FIG. 30D, n=15).

[7] = test system: DBA/1 CIA mice; assay: Arthritis score in mice with established CIA (treatment from day 16)
Source text: Rheumatoid Arthritis is a progressive joint deformation disease caused by severe inflammation. CIA mice were subjected to subcutaneous injections of TD-PC, tuftsin derivative (SEQ ID NO: 25), PC, a mix of TD and PC, or PBS, 3 times a week. […] Treatment started as day 16 after disease induction when disease symptoms were already notable. […] The significant reduction in arthritis score was illustrious from day 7 after treatment administration and lasted until day 35 (the day mice were sacrificed).

[8] = test system: CD4+CD25+FOXP3+ Tregs; assay: Treg expansion in spleen cells of lupus mice treated with TD-PC (FACS); details: gating on CD4+ T cells; PBS 4%
Source text: The percentage of CD4+CD25+FOXP3+ Tregs phenotype subset in spleen cells following treatment with TD-PC, tuftsin derivative (SEQ ID NO: 25), PC or PBS, is elucidated in FIGS. 25A-25B.

[9] = test system: splenocytes derived from CIA mice; assay: Cytokine secretion in-vitro by splenocytes of CIA mice (oral and s.c. TD-PC); details: splenocyte culture fluids
Experimental: Cytokines play a major role in synovial inflammation while the major ones are IL-17, TNFα and IL-1. Secretion of pro-inflammatory (TNFα, IL-1β, IL-17) and anti-inflammatory cytokines (IL-10) by splenocytes derived from CIA mice treated with TD-PC or PBS (control), in-vitro, was evaluated.
Furthermore, TD-PC increased the level of anti-inflammatory cytokine IL-10 in a significant manner compared to control mice (p<0.0001; FIG. 28D and Table 3).

[10] = test system: NZBxW/F1 lupus mice; assay: Survival of lupus mice treated with TD-PC (Kaplan-Meier); details: already at week 24
Experimental: A main complication of lupus nephritis is a short survival time due to severe kidney failure. Therefore, the survival time of mice treated either with TD-PC or with PC, tuftsin derivative (SEQ ID NO: 25) or PBS (control) was analyzed.

## C[C@@H](O)[C@H](N)C(=O)N[C@@H](CCCCN)C(=O)N1CCC[C@H]1C(=O)N[C@@H](CCCNC(=N)N)C(=O)NCC(=O)N[C@@H](Cc1ccc(O)c(N=Nc2ccc(OP(=O)([O-])OCC[N+](C)(C)C)cc2)c1)C(=O)O [TD-PC, Thr-Lys-Pro-Arg-Gly-Tyr-PC] (H-TKPRG[X1]-OH)
[1]; TD-PC treated groups (oral and s.c.), control 11.8
  mean arthritis score: 1.5 (ranged from 0 to 4)
[1]; oral, PBS oral 12.6±1.14
  mean arthritis score: 1.6±1.5
[1]; s.c., PBS s.c 11±1.22
  mean arthritis score: 1.4±0.84
[2]
  mean percentage of CD4+CD25+FOXP3+ Treg cells: 8.75%
[3]; in vitro
  IL-17 secretion from splenocytes: significant decline
[3]; in-vitro
  IL-10 secretion by splenocytes: remarkably increased
  TGFβ production by splenocytes: significantly upregulated
  reduction of splenocyte secretion of IFNγ: 5.2 times
[4]; PBS 298
  mean IL-10 level: 1745 pg/mL
[4]; PBS 840
  mean IL-6 level: 480 pg/mL
[4]; PBS 883
  mean IL-1β level: 320 pg/mL
[4]; PBS 1073
  mean TNF-α level: 342 pg/mL
[4]; PBS 2170
  mean IL-17 level: 1770 pg/mL
[5]
  CD4+CD25+FOXP3+ Treg cells in isolated splenocytes: striking increase
[6]
  Breg phenotype expansion in isolated splenocytes: significantly stimulated
[7]; day 35, s.c. 3 times a week, PBS 13.8±0.45
  mean arthritis score: 6.8±0.8
[7]; time 0 (treatment initiation, day 16 after disease induction), baseline
  average arthritis score: 3.6±0.9
[8]
  CD4+CD25+FOXP3+ Tregs in spleen cells: 18%
[9]; oral
  IL-1β: 183 pg/mL
  IL-10: 3605 pg/mL
  IL-17: 505 pg/mL
  TNFα: 633 pg/mL
[9]; s.c.
  IL-1β: 198 pg/mL
  IL-10: 2917 pg/mL
  IL-17: 497 pg/mL
  TNFα: 621 pg/mL
[10]
  percentage of death number vs PBS injected mice: significant difference
